From patent US20200048208A1, “TREATMENT OF DISEASES OR DISORDERS CAUSED BY INDUCED NFkB TRANSCRIPTIONAL ACTIVITY” (Senex Biotechnology, Inc., priority 2011, published 2020)
Entries after “also recorded” stand apart in the source; their conditions may differ. Non-standard residues stand in square brackets, D forms with d. Residues, ends and D or L forms follow the SMILES beside them. *: point of attachment. Nva = CCC[C@H](N)C(=O)O; Cbz = O=C(OCc1ccccc1)*

Columns and labels:
[1] = clinical experience (Cavaletti and Jakubowiak, 2010); cited from earlier work
[2] = test system: HT1080-derived NFkB-GFP reporter cell line; test: Propidium iodide flow cytometry for dead cells; assay type: cell-based, human; conditions: inhibitor 3 hours then 18 hours TNFα (10 ng/ml)
Protocol: (§1) We have compared Senexin A to two known proteasome-targeting NFκB inhibitors, N-tosyl-L-phenylalanine chloromethyl ketone (TPCK) (Ha et al., 2009) and MG115 in regard to their cytotoxicity and their effect on the nuclear translocation of active NFκB. In the experiment shown in FIG. 7, the HT1080-derived NFkB-GFP reporter cell line was seeded in 60 mm plates at 1.5×10^5 cells per plate and cultured overnight before being treated with different NFκB inhibitors at the concentrations indicated in FIG. 7 for 3 hours, followed by 18 hours TNFα (10 ng/ml) stimulation. The treated cells were trypsinized, resuspended in PBS, mixed with 5 μg/ml propidium iodide (PI), and analyzed using LSRII flow cytometer (BD Biosciences) for GFP fluorescence (left panel) and the percentage of dead (PI-positive) cells (right panel).

[3] = test system: TNFα-induced NFκB-dependent transcription; test: NFkB-GFP reporter flow cytometry after inhibitor and TNFα (GFP fluorescence); assay type: cell-based, human; conditions: HT1080-derived reporter, inhibitor 3 hours then 18 hours TNFα (10 ng/ml)
Protocol: as §1

p65 = test: TransAM NFκB DNA-binding ELISA of nuclear extracts, p65; assay type: cell-based, human; conditions: HT1080 and HEK293 cells, untreated and TNFα-treated; 5 μM Senexin A, 60 μM TPCK, 10 μM MG115 for 3 hours
Description: (§2) Given the role of NFxB in the induction of transcription by p21 (Poole et al., 2004), we have tested SNX2 for the ability to decrease the amount of active NFκB in the nucleus, a general assay for different known classes of NFκB inhibitors. As shown in FIG. 8 of US patent publication 20080033000, we have found, using ACTIVE MOTIF TransAM™ NFκB p65 Chemi and NFκB p50 Chemi Transcription Factor Assay Kits, that SNX2 had no effect on the amount of p50 or p65 NFκB subunits binding to NFκB consensus sequence in nuclear extracts from HT 1080 cells, untreated or treated with NFκB inducer TNFα.
(§3) The DNA-binding activities of nuclear NFκB proteins were measured by the ELISA-based TransAM NFκB Family Transcriptional Factor Assay Kit (Active Motif) following manufacturer's protocol. HT1080 and HEK293 cells were pretreated with inhibitors (5 μM Senexin A, 60 μM TPCK, 10 μM MG115) for 3 hours and then treated with 10 ng/ml TNF for 30 minutes before nuclear extract preparation with Nuclear Extraction Kit (Active Motif). Nuclear extracts were assayed at 5 μg/well for p65 and 2.5 μg/well for p50 DNA binding.

p50 = test: TransAM NFκB DNA-binding ELISA of nuclear extracts, p50; assay type: cell-based, human; conditions: HT1080 and HEK293 cells, untreated and TNFα-treated; 5 μM Senexin A, 60 μM TPCK, 10 μM MG115 for 3 hours
Description: as §2, §3

NFκB-dependent promoter [4] = test: NFκB-GFP reporter assay, TNFα induction (96-well fluorometric); assay type: cell-based, human; conditions: HT1080-based NFκB-GFP reporter cells
Protocol: (§4) We have tested the effects of SNX2-class compounds on NFκB transcriptional activity. These assays were conducted with a reporter cell line that we derived from HT1080 p21-9 cells carrying IPTG-inducible p21 (Chang et al., 1999) after transduction with Cignal Lenti NFκB Reporter lentivirus (SA Biosciences), which expresses GFP from a NFκB-dependent minimal promoter. The reporter cell line was then selected for a high basal level of NFκB-dependent GFP expression, which was further increased by TNFα or upon p21 induction by IPTG.
The ability of SNX2-class compounds to prevent the induction of the NFκB-dependent promoter by p21 was not surprising, since these compounds were identified by their ability to prevent p21-mediated induction of another promoter (CMV) (Chang et al., 2008), and NFκB stimulation by p21 was already known.

NFκB-dependent promoter [5] = test: NFκB-GFP reporter assay, induction by IPTG-inducible p21 (flow cytometric); assay type: cell-based, human; conditions: HT1080 p21-9 derived NFκB-GFP reporter cells, 50 mM IPTG for 72 hrs, different concentrations
Protocol: as §4

NFκB-inducible genes [6] = test: QPCR of NFκB-inducible genes in TNFα-treated HEK293 cells; assay type: cell-based, human; conditions: HEK293, 5 μM pretreatment 1 hour, 10 ng/ml TNFα 30 minutes
Protocol: The cells were seeded in 6-well plates at 6×10^5 cells/well in media containing 3% serum and cultured overnight. The next day, cells were pretreated with 5 μM Senexin A or with DMSO vehicle control for 1 hour and treated with or without 10 ng/ml TNFα for 30 minutes. Cells were then lysed for total RNA purification with the RNeasy Kit (Qiagen). For QPCR analysis of NFκB-inducible genes, cDNA was prepared using Maxima First Strand cDNA Synthesis Kit (Thermo Scientific/Fermentas, K1641) and gene expression was measured by QPCR with gene-specific primers, with RPL13A as a normalization standard, using Maxima SYBR Green/ROX qPCR Master Mix (Thermo Scientific/Fermentas, K0223) and ABI Prism 7900HT Detection system (Life technologies).

NFκB-inducible genes [7] = test: QPCR of NFκB-inducible genes in TNFα-treated wild-type HCT116 cells; assay type: cell-based, human; conditions: wild-type HCT116, 5 μM pretreatment 1 hour, 10 ng/ml TNFα 30 minutes
Protocol: (§5) We have verified the effect of CDK8/19 inhibition on NFκB-mediated induction of transcription in human HCT116 colon carcinoma cells, where we also used the availability of a p21−/− derivative of this cell line (Waldman et al., 1996) to determine if this effect depends on p21. The wild-type and p21−/− HCT116 cells were seeded in 6-well plates at 6×10^5 cells/well in media with 10% serum and cultured overnight. The next day, cells were pretreated with 5 μM Senexin A or with DMSO vehicle control for 1 hour and treated with or without 10 ng/ml TNFα for 30 minutes. Cells were then lysed for RNA purification and QPCR analysis of NFκB-inducible genes.

NFκB-inducible genes [8] = test: QPCR of NFκB-inducible genes in TNFα-treated p21−/− HCT116 cells; assay type: cell-based, human; conditions: p21−/− HCT116, 5 μM pretreatment 1 hour, 10 ng/ml TNFα 30 minutes
Protocol: as §5

[9] = test system: induction of transcription by p21; conditions: at concentrations that inhibit NFκB (Poole et al., 2004); cited from earlier work
[10] = bone loss therapy (Hiligsmann and Reginster, 2010); cited from earlier work

## CC(C)C[C@H](NC(=O)[C@H](Cc1ccccc1)NC(=O)c1cnccn1)B(O)O [Bortezomib]
[1]
  Bortezomib-induced peripheral neuropathy: 37-44 % of patients

## N-tosyl-L-phenylalanine chloromethyl ketone [TPCK, reference compound]
[2]
  fraction of dead (PI-positive) cells: strongly increased the fraction of dead cells
[3]
  TNFα-induced NFκB-dependent transcription (GFP fluorescence): inhibited TNFα-induced NFκB-dependent transcription
p65
  amount of active p65 (DNA binding) in nuclear extracts: strongly decreased
p50
  amount of active p50 (DNA binding) in nuclear extracts: strongly decreased

## N#Cc1ccc2ncnc(NCCc3ccccc3)c2c1 [SNX2-1-53]
NFκB-dependent promoter [4]; 10 ng/ml TNFα for 18 hrs
  TNFα-induced NFκB activity (GFP expression normalized by Hoechst 33342): inhibited TNFα-induced NFκB activity
NFκB-dependent promoter [4]; untreated (no TNFα)
  basal NFκB activity (normalized GFP expression): did not significantly inhibit
[2]; listed as Senexin A
  fraction of dead (PI-positive) cells: minimal effects on cell viability; also recorded: did not
NFκB-dependent promoter [5]
  induction of the NFκB-dependent promoter by p21 (GFP expression): strongly inhibited
NFκB-dependent promoter [5]; listed as Senexin A
  induction of the NFκB-dependent promoter by p21 (GFP expression): dose dependent inhibition
[3]; listed as Senexin A
  TNFα-induced NFκB-dependent transcription (GFP fluorescence): inhibits NFκB activation; also recorded: inhibited TNFα-induced NFκB-dependent transcription
p65
  amount of active p65 (DNA binding) in nuclear extracts: does not block; also recorded: indistinguishable from the control
NFκB-inducible genes [6]
  induction of NFκB-regulated genes by TNFα: drastically inhibited
NFκB-inducible genes [7]
  TNFα-induced gene expression: inhibited TNFα-induced gene expression to the same degree
NFκB-inducible genes [8]
  TNFα-induced gene expression: inhibited TNFα-induced gene expression to the same degree
p50
  amount of active p50 (DNA binding) in nuclear extracts: does not block; also recorded: indistinguishable from the control

## CC1=C(CC(=O)O)c2cc(F)ccc2/C1=C\c1ccc([S+](C)[O-])cc1 (stereo not shown) [Sulindac]
[9]
  induction of transcription by p21: inhibited

## CCC[C@@H](C=O)NC(=O)[C@H](CC(C)C)NC(=O)[C@H](CC(C)C)NC(=O)OCc1ccccc1 [MG115, reference compound] (Cbz-Leu-Leu-[Nva]-aldehyde)
[2]
  fraction of dead (PI-positive) cells: strongly increased the fraction of dead cells
[3]
  TNFα-induced NFκB-dependent transcription (GFP fluorescence): inhibited TNFα-induced NFκB-dependent transcription
p65
  amount of active p65 (DNA binding) in nuclear extracts: strongly decreased
p50
  amount of active p50 (DNA binding) in nuclear extracts: strongly decreased

## denosumab
[10]
  safety profile: good safety profile
